Target: HPK1 kinase (Homo sapiens (Human), UniProt Q92918)
Experiment: HPK1 kinase activity inhibition (ADP-Glo Kinase Assay)
Format: biochemical
Conditions: HPK1, MBP substrate, ATP, 25° C. 60 min
Protocol: Test Example 1: Detection of Compound's Ability to Inhibit HPK1 Kinase Activity (Method 1)
The specific operation is as follows: configure the enzymatic reaction system buffer (10 mM MOPS, pH 7.2, 5 mM β-glycerol-phosphate, 10 mM MgCl2, 0.8 mM EDTA, 2 mM EGTA, 0.1 mM DTT); the test compound (1 mM the compound stock solution in DMSO) was diluted with buffer to the highest concentration of 60 uM (containing 6% DMSO), and the compound with a concentration of 60 μM was initially diluted 5 times with a buffer containing 6% DMSO for a total of 8 points of gradient concentration; then dilute HPK1 kinase to 30 nM in buffer. Add 2 μl of HPK1 kinase diluent to each well of a Greiner 384-well microplate (Cat. No. 784075), and add 2 μl of buffer to the control well; add 1 μl of the diluted compound to the reaction well after brief centrifugation, and add 1 μl buffer solution containing 6% DMSO to the control well; after short centrifugation, place in a 25° C. constant temperature incubator (Shanghai Yiheng Scientific Instrument Co., Ltd., Cat. No.: LRH-150) and incubate for 20 minutes. Add 3 μl of reaction substrate (10 μM MBP and 20 μM ATP dissolved in distilled water) to each well, briefly centrifuge and incubate in a constant temperature incubator at 25° C. for 60 min, and use ADP-Glo Kinase Assay Kit to detect the enzymatic reaction activity, ADP-Glo Kinase Assay Kit detection is carried out according to the operating instructions of the kit. Data are described using the half maximal inhibitory concentration IC50 of the compound.

Sequence of HPK1 kinase (Q92918 whole entry): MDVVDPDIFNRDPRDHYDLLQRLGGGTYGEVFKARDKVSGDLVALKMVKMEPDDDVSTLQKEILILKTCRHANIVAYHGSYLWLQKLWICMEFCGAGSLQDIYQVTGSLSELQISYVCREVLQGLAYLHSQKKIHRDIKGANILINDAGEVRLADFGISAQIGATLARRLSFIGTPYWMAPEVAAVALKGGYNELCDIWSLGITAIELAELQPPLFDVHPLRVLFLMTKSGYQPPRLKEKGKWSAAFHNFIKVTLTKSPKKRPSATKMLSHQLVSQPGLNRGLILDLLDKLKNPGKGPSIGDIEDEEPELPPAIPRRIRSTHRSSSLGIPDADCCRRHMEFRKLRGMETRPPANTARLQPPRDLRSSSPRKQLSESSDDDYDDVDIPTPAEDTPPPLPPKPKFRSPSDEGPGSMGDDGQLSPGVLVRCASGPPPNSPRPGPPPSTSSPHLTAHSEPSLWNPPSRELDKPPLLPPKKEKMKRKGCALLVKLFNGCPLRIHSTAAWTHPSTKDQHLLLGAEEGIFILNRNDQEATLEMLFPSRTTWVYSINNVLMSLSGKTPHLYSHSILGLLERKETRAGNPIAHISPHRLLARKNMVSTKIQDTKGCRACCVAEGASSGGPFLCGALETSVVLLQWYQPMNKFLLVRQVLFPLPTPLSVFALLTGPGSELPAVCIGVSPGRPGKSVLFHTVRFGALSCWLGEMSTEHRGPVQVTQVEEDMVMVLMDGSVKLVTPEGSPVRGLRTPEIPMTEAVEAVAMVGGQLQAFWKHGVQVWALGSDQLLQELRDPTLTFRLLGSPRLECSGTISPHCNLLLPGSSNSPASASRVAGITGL

| IC50 [nM] | Structure (SMILES) |
| --- | --- |
| < 0.1 | COc1nc2c(cc1Nc1ncc3cccc(-c4cccc(Cl)n4)c3n1)CN(C)CC2 [Example 40, 8-(6-chloropyridin-2-yl)-N-(2-methoxy-6-methyl-5,6,7,8-tetrahydro-1,6-naphthyridin-3-yl)quinazolin-2-amine] |
| < 0.1 | COc1nc2c(cc1Nc1ncc3ccnc(NCC(C)(C)C)c3n1)CN(C)CC2 [Example 41, N2-(2-methoxy-6-methyl-5,6,7,8-tetrahydro-1,6-naphthyridin-3-yl)-N8-neopentylpyrido[3,4-d]pyrimidine-2,8-diamine] |
| < 0.1 | COc1nc2c(cc1Nc1ncc3ccnc(N[C@@H](C)C(C)(C)C)c3n1)CN(C)CC2 [Example 42, (S)—N8-(3,3-dimethylbut-2-yl)-N2-(2-methoxy-6-methyl-5,6,7,8-tetrahydro-1,6-naphthyridin-3-yl)pyrido[3,4-d]pyrimidine-2,8-diamine] |
| 4.67 | COc1nc2c(cc1Nc1ncc3ccnc(-c4cc(C)nn4C)c3n1)CN(C)CC2 [Example 43, 8-(1,3-Dimethyl-1H-pyrazol-5-yl)-N-(2-methoxy-6-methyl-5,6,7,8-tetrahydro-1,6-naphthyridin-3-yl)pyrido[3,4-d]pyrimidin-2-amine] |
| < 0.1 | CCOc1nc2c(cc1Nc1ncc3cccc(-c4ccccc4OC)c3n1)CN(C)CC2 [Example 44, N-(2-ethoxy-6-methyl-5,6,7,8-tetrahydro-1,6-naphthyridin-3-yl)-8-(2-methoxyphenyl)quinazolin-2-amine] |
| < 0.1 | COc1ccccc1-c1cccc2cnc(Nc3cnc4c(c3)CN(C)CC4)nc12 [Example 45, 8-(2-methoxyphenyl)-N-(6-methyl-5,6,7,8-tetrahydro-1,6-naphthyridin-3-yl)quinazolin-2-amine] |
| 0.15 | COc1ccccc1-c1cccc2cnc(Nc3cc4c(nc3C)CCN(C)C4)nc12 [Example 46, N-(2,6-dimethyl-5,6,7,8-tetrahydro-1,6-naphthyridin-3-yl)-8-(2-methoxyphenyl)quinazoline-2-amine] |
| 2.77 | CCOc1nc2c(cc1Nc1ncc3cccc(-c4cccnc4OC)c3n1)CN(C)CC2 [Example 47, N-(2-ethoxy-6-methyl-5,6,7,8-tetrahydro-1,6-naphthyridin-3-yl)-8-(2-methoxypyridin-3-yl) quinazolin-2-amine] |
| 1.93 | COc1ncccc1-c1cccc2cnc(Nc3cc4c(nc3C)CCN(C)C4)nc12 [Example 48, N-(2,6-dimethyl-5,6,7,8-tetrahydro-1,6-naphthyridin-3-yl)-8-(2-methoxypyridin-3-yl)quinazolin-2-amine] |
| 26.9 | CN1CCc2[nH]c(=O)c(Nc3ncc4ccnc(N5CCOCC5)c4n3)cc2C1 [Example 49, 6-methyl-3-((8-morpholinopyrido[3,4-d]pyrimidin-2-yl)amino)-5,6,7,8-tetrahydro-1,6-naphthyridine-2(1H)-one] |
| < 0.1 | CCOc1nc2c(cc1Nc1ncc3ccnc(NCC(C)(C)C)c3n1)CN(C)CC2 [Example 52, N2-(2-ethoxy-6-methyl-5,6,7,8-tetrahydro-1,6-naphthyridin-3-yl)-N8-neopentylpyrido[3,4-d]pyrimidine-2,8-diamine] |
| < 0.1 | COc1nc2c(cc1Nc1ncc3cccc(-c4cnn(C)c4C)c3n1)CN(C)CC2 [Example 53, 8-(1,5-dimethyl-1H-pyrazol-4-yl)-N-(2-methoxy-6-methyl-5,6,7,8-tetrahydro-1,6-Naphthyridin-3-yl)quinazolin-2-amine] |
| 21.7 | CCOc1nc2c(cc1Nc1ncc3cccc(-c4ccc(=O)n(C)c4)c3n1)CN(C)CC2 [Example 54, 5-(2-((2-ethoxy-6-methyl-5,6,7,8-tetrahydro-1,6-naphthyridin-3-yl)amino)quinazolin-8-yl)-1-methylpyridin-2(1H)-one] |
| 0.66 | CCOc1nc2c(cc1Nc1ncc3cccc(-c4cnn(C)c4C)c3n1)CN(C)CC2 [Example 55, 8-(1,5-dimethyl-1H-pyrazol-4-yl)-N-(2-ethoxy-6-methyl-5,6,7,8-tetrahydro-1,6-naphthyridin-3-yl)quinazolin-2-amine] |
| 0.25 | CCOc1nc2c(cc1Nc1ncc3ccnc(N[C@@H](CO)C(C)(C)C)c3n1)CN(C)CC2 [Example 57, (R)-2-((2-((2-ethoxy-6-methyl-5,6,7,8-tetrahydro-1,6-naphthyridin-3-yl)amino)pyrido[3,4-d]pyrimidin-8-yl)amino)-3,3-dimethylbutan-1-ol] |
| < 0.1 | CCOc1nc2c(cc1Nc1ncc3ccnc(N[C@H](C)C(C)(C)C)c3n1)CN(C)CC2 [Example 58, (R)—N8-(3,3-dimethylbut-2-yl)-N2-(2-ethoxy-6-methyl-5,6,7,8-tetrahydro-1,6-Naphthyridin-3-yl)pyrido[3,4-d]pyrimidine-2,8-diamine] |

| IC50 [nM] | Structure (SMILES) |
| --- | --- |
| < 0.1 | COc1nc2c(cc1Nc1ncc3cccc(Cc4ccccc4)c3n1)CN(C)CC2 [Example 59, 8-benzyl-N-(2-methoxy-6-methyl-5,6,7,8-tetrahydro-1,6-naphthyridin-3-yl)quinazolin-2-amine] |
| < 0.1 | Cc1c(-c2cccc3cnc(Nc4cc5c([nH]c4=O)CCN(C)C5)nc23)cnn1C [Example 61, 3-((8-(1,5-dimethyl-1H-pyrazol-4-yl)quinazolin-2-yl)amino)-6-methyl-5,6,7,8-tetrahydro-1,6-naphthyridin-2(1H)-one] |
| 23.1 | COc1ccccc1-c1nccc2cnc(Nc3cc4c([nH]c3=O)CCN(C)C4)nc12 [Example 62, 3-((8-(2-methoxyphenyl)pyrido[3,4-d]pyrimidin-2-yl)amino)-6-methyl-5,6,7,8-tetrahydro-1,6-naphthyridin-2(1H)-one] |
| 31.3 | CN1CCc2[nH]c(=O)c(Nc3ncc4ccnc(N5CCCCC5)c4n3)cc2C1 [Example 63, 6-methyl-3-((8-(piperidin-1-yl)pyrido[3,4-d]pyrimidin-2-yl)amino)-5,6,7,8-tetrahydro-1,6-naphthyridin-2(1H)-one] |
| < 0.1 | CN1CCc2[nH]c(=O)c(Nc3ncc4ccnc(NCC(C)(C)C)c4n3)cc2C1 [Example 64, 6-methyl-3-((8-(neopentylamino)pyrido[3,4-d]pyrimidin-2-yl)amino)-5,6,7,8-tetrahydro-1,6-naphthyridin-2(1H)-one] |
| 20.1 | CCOc1nc2c(cc1Nc1ncc3ccnc(N4CC(C)(C)C4)c3n1)CN(C)CC2 [Example 65, 8-(3,3-dimethylazetidin-1-yl)-N-(2-ethoxy-6-methyl-5,6,7,8-tetrahydro-1,6-Naphthyridin-3-yl)pyrido[3,4-d]pyrimidin-2-amine] |
| 23.3 | CCOc1nc2c(cc1Nc1ncc3cccc(-c4c(C)nn(C)c4C)c3n1)CN(C)CC2 [Example 67, N-(2-ethoxy-6-methyl-5,6,7,8-tetrahydro-1,6-naphthyridin-3-yl)-8-(1,3,5-trimethyl-1H-pyrazol-4-yl)quinazolin-2-amine] |
| 1.47 | CN1CCc2c(cc(Nc3ncc4ccnc(N5CCCCC5)c4n3)c(=O)n2C)C1 [Example 68, 1,6-dimethyl-3-((8-(piperidin-1-yl)pyrido[3,4-d]pyrimidin-2-yl)amino)-5,6,7,8-tetrahydro-1,6-naphthyridin-2(1H)-one] |
| 2.19 | CN1CCc2c(cc(Nc3ncc4ccnc(N5CCOCC5)c4n3)c(=O)n2C)C1 [Example 69, 1,6-dimethyl-3-((8-morpholinopyrido[3,4-d]pyrimidin-2-yl)amino)-5,6,7,8-tetrahydro-1,6-naphthyridin-2(1H)-one] |
| 15.8 | CN1CCc2[nH]c(=O)c(Nc3ncc4ccnc(N5CCC(F)(F)CC5)c4n3)cc2C1 [Example 74, 3-((8-(4,4-difluoropiperidin-1-yl)pyrido[3,4-d]pyrimidin-2-yl)amino)-6-methyl-5,6,7,8-tetrahydro-1,6-naphthyridin-2(1H)-one] |
| < 0.1 | CN1CCc2[nH]c(=O)c(Nc3ncc4ccnc(C5=CCCCC5)c4n3)cc2C1 [Example 75, 3-((8-(cyclohex-1-en-1-yl)pyrido[3,4-d]pyrimidin-2-yl)amino)-6-methyl-5,6,7,8-tetra hydro-1,6-naphthyridin-2(1H)-one] |
| 0.61 | CN1CCc2c(cc(Nc3ncc4ccnc(N5CCCCCC5)c4n3)c(=O)n2C)C1 [Example 80, 3-((8-(azepan-1-yl)pyrido[3,4-d]pyrimidin-2-yl)amino)-1,6-dimethyl-5,6,7,8-tetrahydro-1,6-naphthyridin-2(1H)-one] |
| 0.23 | CN1CCc2c(cc(Nc3ncc4ccnc(C5=CCCCC5)c4n3)c(=O)n2C)C1 [Example 81, 3-((8-(cyclohex-1-en-1-yl)pyrido[3,4-d]pyrimidin-2-yl)amino)-1,6-dimethyl-5,6,7,8-tetrahydro-1,6-naphthyridin-2(1H)-one] |
| < 0.1 | Cn1c2c(cc(Nc3ncc4ccnc(N5CCC(F)(F)CC5)c4n3)c1=O)CN(CCO)CC2 [Example 82, 3-((8-(4,4-difluoropiperidin-1-yl)pyrido[3,4-d]pyrimidin-2-yl)amino)-6-(2-hydroxyethyl)-1-methyl-5,6,7,8-tetrahydro-1,6-naphthyridin-2(1H)-one] |
| 0.16 | Cn1c2c(cc(Nc3ncc4ccnc(N5CCCCC5)c4n3)c1=O)CN(CCO)CC2 [Example 83, 6-(2-hydroxyethyl)-1-methyl-3-((8-(piperidin-1-yl)pyrido[3,4-d]pyrimidin-2-yl)amino)-5,6,7,8-tetrahydro-1,6-naphthyridin-2(1H)-one] |

Reference: patent US20230399327A1, “HIGH ACTIVITY HPK1 KINASE INHIBITOR” (ADLAI NORTYE BIOPHARMA CO., LTD., priority 2020, published 2023)
